According to patent publication US20260284011A1, “COMPOUNDS FOR RESTORING SUSCEPTIBILITY TO BETA-LACTAM ANTIBIOTICS” (UNIVERSITY OF NOTRE DAME DU LAC, priority 2023, published 2026):
Like-named read-outs stand apart in the source and are kept apart here.

What was measured:
ATCC 29213, MSSA, bla + = experiment: MIC determination and potentiation assay (microdilution broth); assay type: cell-based, Staphylococcus aureus; conditions: for MIC: Staphylococcus aureus
Protocol: (§1) MICs were determined by the microdilution broth method following the Clinical & Laboratory Standards Institute (CLSI) guidelines. […] Experiments were performed in triplicate in 96-well plates with 5×10^5 CFU·mL^−1 of bacteria. […] The MIC was the concentration for which bacterial growth was not observed.

[1] = tested on: COL (NRS100), MRSA, SCCmec I, bla −; experiment: as above; assay type: cell-based, Staphylococcus aureus; conditions: for MIC: Staphylococcus aureus
Protocol: as §1

[2] = tested on: HIP 133170 (VRS3a), MRSA/VRSA, SCCmec IV, bla +; experiment: as above; assay type: cell-based, Staphylococcus aureus; conditions: for MIC: Staphylococcus aureus
Protocol: as §1

[3] = tested on: HIP07920 (NRS21), MRSA/VISA, SCCmec IV, bla +; experiment: as above; assay type: cell-based, Staphylococcus aureus; conditions: for MIC: Staphylococcus aureus, agent alone
Protocol: as §1

[4] = tested on: HIP15178 (VRS5), MRSA/VRSA, SCCmec II, bla +; experiment: as above; assay type: cell-based, Staphylococcus aureus; conditions: for MIC: Staphylococcus aureus
Protocol: as §1

[5] = tested on: JE2, MRSA, SCCmec IV, bla −; experiment: as above; assay type: cell-based, Staphylococcus aureus; conditions: for MIC: Staphylococcus aureus, MRSA, agent alone
Protocol: as §1

[6] = tested on: LIM2 (NRS36), MRSA, SCCmec I, bla +; experiment: as above; assay type: cell-based, Staphylococcus aureus; conditions: for MIC: Staphylococcus aureus
Protocol: as §1

[7] = tested on: NTCT 8325 (NRS77), MSSA, bla −; experiment: as above; assay type: cell-based, Staphylococcus aureus; conditions: for MIC: Staphylococcus aureus
Protocol: as §1

[8] = tested on: ATCC 33591, MRSA, SCCmec III, bla +; experiment: as above; assay type: cell-based; conditions: Staphylococcus aureus
Protocol: as §1

[9] = tested on: CA-127 (NRS643), MRSA, SCCmec IV, bla +; experiment: as above; assay type: cell-based; conditions: Staphylococcus aureus
Protocol: as §1

[10] = tested on: CA-347 (NRS648), MRSA, SCCmec II, bla +; experiment: as above; assay type: cell-based; conditions: Staphylococcus aureus
Protocol: as §1

[11] = tested on: CM05, MRSA, SCCmec I, bla +; experiment: as above; assay type: cell-based; conditions: Staphylococcus aureus
Protocol: as §1

[12] = tested on: CO-23 (NRS661), MRSA, SCCmec II, bla +; experiment: as above; assay type: cell-based; conditions: Staphylococcus aureus
Protocol: as §1

[13] = tested on: HFH 29568, MRSA, USA300 clone, SCCmec IV, bla +; experiment: as above; assay type: cell-based; conditions: Staphylococcus aureus
Protocol: as §1

[14] = tested on: HI049, MRSA, USA300 clone, SCCmec IV, bla +; experiment: as above; assay type: cell-based; conditions: Staphylococcus aureus, agent alone
Protocol: as §1

[15] = tested on: HIP 07930 (NRS22), MRSA/VISA, SCCmec II, bla +; experiment: as above; assay type: cell-based; conditions: Staphylococcus aureus
Protocol: as §1

[16] = tested on: HT 20020320 (NRS245), MRSA, SCCmec IV, bla +; experiment: as above; assay type: cell-based; conditions: Staphylococcus aureus
Protocol: as §1

[17] = tested on: LinR#12 (NRS119), MRSA, SCCmec IV, bla +; experiment: as above; assay type: cell-based; conditions: Staphylococcus aureus
Protocol: as §1

[18] = tested on: M1712 (NRS127), MRSA, SCCmec II, bla +; experiment: as above; assay type: cell-based; conditions: Staphylococcus aureus
Protocol: as §1

[19] = tested on: MN-082 (NRS701), MRSA, SCCmec II, bla +; experiment: as above; assay type: cell-based; conditions: Staphylococcus aureus
Protocol: as §1

[20] = tested on: MSSA476 (NRS72), MSSA, bla +; experiment: as above; assay type: cell-based; conditions: Staphylococcus aureus
Protocol: as §1

[21] = tested on: NY-315 (NRS715), MRSA, SCCmec II, bla +; experiment: as above; assay type: cell-based; conditions: Staphylococcus aureus
Protocol: as §1

[22] = tested on: SR4035, MRSA, SCCmec IV, bla +; experiment: as above; assay type: cell-based; conditions: Staphylococcus aureus
Protocol: as §1

[23] = tested on: various MRSA strains (NRS21, NRS70, NRS382, NRS404, HFH29568, HFH30495); experiment: Time-kill assays (FIG. 6); assay type: cell-based, Staphylococcus aureus; conditions: at 24 h
Protocol: Time-kill assay. MRSA strains (NRS21, NRS70, NRS382, NRS404, HFH 29568, and HFH 30495) were grown overnight on tryptic soy agar plate. Bacteria were diluted in Muller-Hinton broth containing 2% NaCl to […] CFU·mL^−1. […] For MEM and CPT, cation-adjusted Muller-Hinton broth without 2% NaCl was used. Aliquots were taken at 0, 3, 6, 9, 12, and 24 h and were diluted serially for bacterial counts. The assay was done in triplicate.

[24] = ATCC 29213, agent alone, read-out: MIC
[25] = COL (NRS100), agent alone, read-out: MIC
[26] = HIP 133170 (VRS3a), agent alone, read-out: MIC
[27] = HIP15178 (VRS5), agent alone, read-out: MIC
[28] = LIM2 (NRS36), agent alone, read-out: MIC
[29] = NTCT 8325 (NRS77), agent alone, read-out: MIC
[30] = ATCC 33591, agent alone, read-out: MIC
[31] = CA-127 (NRS643), agent alone, read-out: MIC
[32] = CA-347 (NRS648), agent alone, read-out: MIC
[33] = CO-23 (NRS661), agent alone, read-out: MIC
[34] = HFH 29568, agent alone, read-out: MIC
[35] = HIP 07930 (NRS22), agent alone, read-out: MIC
[36] = HT 20020320 (NRS245), agent alone, read-out: MIC
[37] = LinR#12 (NRS119), agent alone, read-out: MIC
[38] = M1712 (NRS127), agent alone, read-out: MIC
[39] = MN-082 (NRS701), agent alone, read-out: MIC
[40] = MSSA476 (NRS72), agent alone, read-out: MIC
[41] = NY-315 (NRS715), agent alone, read-out: MIC
[42] = SR4035, agent alone, read-out: MIC
[43] = MSSA strain ATCC29213, 4 at 8 mg·L^−1
[44] = strain NTCT8325, 4 at 8 mg·L^−1

| SMILES | MIC (ATCC 29213, MSSA, bla +; [24]) [µg/mL] | MIC [1, 25] [µg/mL] | MIC [2, 26] [µg/mL] | MIC ([3]; HIP07920 (NRS21)) [µg/mL] | MIC [4, 27] [µg/mL] | MIC [5] [µg/mL] | MIC [6, 28] [µg/mL] | MIC [7, 29] [µg/mL] | MIC [8, 30] [µg/mL] | MIC [9, 31] [µg/mL] | MIC [10, 32] [µg/mL] | MIC [11] [µg/mL] | MIC [12, 33] [µg/mL] | MIC [13, 34] [µg/mL] | MIC [14] [µg/mL] | MIC [17, 37] [µg/mL] | MIC [19, 39] [µg/mL] | MIC [20, 40] [µg/mL] | MIC [21, 41] [µg/mL] | reduction in bacterial growth by itself [23] | further results |
| --- | --- | --- | --- | --- | --- | --- | --- | --- | --- | --- | --- | --- | --- | --- | --- | --- | --- | --- | --- | --- | --- |
| CCO/N=C(\C(=O)N[C@@H]1C(=O)N2C(C(=O)[O-])=C(Sc3nc(-c4cc[n+](C)cc4)cs3)CS[C@H]12)c1nsc(N)n1 [CPT, ceftaroline] | 0.06 | 1 | 1 | 0.5 | 1 | 1 | 1 | 0.25 | 1 | 0.5 | 1 | 2 | 1 | 1 | 1 | 1 | 2 | 0.13 | 1 | Neither OXA, MEM, CPT, or compound 4 by itself showed reduction in bacterial growth | MIC [15, 35]: 0.25 µg/mL; MIC [16, 36]: 0.5 µg/mL; MIC [18, 38]: 1 µg/mL; MIC [22, 42]: 1 µg/mL |
| N#Cc1ccc2nc(SCB(O)O)n(Cc3ccc(C(F)(F)F)cc3C(F)(F)F)c2c1 [Compound 4, (((1-(2,4-bis(trifluoro-methyl)benzyl)-6-cyano-1H-benzo[d]imidazol-2-yl)thio)methyl)boronic acid] | 16 | 32 | 16 | 8 | 32 | 16 | 16 | 16 | 16 | 16 | 16 | 32 | 32 | 16 | 16 | 16 | 16 | 32 | 16 | Neither OXA, MEM, CPT, or compound 4 by itself showed reduction in bacterial growth | fold lowering of MEM MIC by 4 (ATCC 29213, MSSA, bla +; [43]): 2 fold; fold lowering of OXA MIC by 4 (ATCC 29213, MSSA, bla +; [43]): 4 fold; fold lowering of MEM MIC by 4 ([1]; COL, 4 at 8 mg·L^−1): 16 fold; fold reduction of OXA MIC by 4 ([1]; COL, 4 at 8 mg·L^−1): 2 fold; fold lowering of MEM MIC by 4 ([2]; vancomycin-resistant MRSA, Table 1 entry 19 (VRS3a)): 256 fold; fold lowering of FOX MIC by 4 ([3]; strain NRS21, 4 at 4 mg·L^−1): 2048 fold; fold reduction of OXA MIC by 4 ([3]; strain NRS21, 4 at 4 mg·L^−1): 4096 fold; fold lowering of MEM MIC by 4 ([4]; vancomycin-resistant MRSA, Table 1 entry 13 (VRS5)): 64 fold; fold lowering of MEM MIC by 4 ([5]; 4 at 8 mg·L^−1): 64 fold; fold reduction of OXA MIC by 4 ([5]; 4 at 8 mg·L^−1): 2 fold; fold lowering of MEM MIC by 4 ([6]; strain NRS36, 4 at 8 mg·L^−1): 512 fold; fold lowering of OXA MIC by 4 ([6]; strain NRS36, 4 at 8 mg·L^−1): 64 fold; effect of 4 on the OXA MIC [7, 44]: no effect; fold lowering of MEM MIC by 4 [7, 44]: 2 fold; MIC [15, 35]: 16 µg/mL; MIC [16, 36]: 16 µg/mL; MIC [18, 38]: 16 µg/mL; MIC [22, 42]: 16 µg/mL |
| CO[C@@]1(NC(=O)Cc2cccs2)C(=O)N2C(C(=O)O)=C(COC(N)=O)CS[C@@H]21 [FOX, cefoxitin] | 4 | 256 |  | 64 |  | 64 |  | 4 |  |  |  | 512 |  | 32 | 64 | 256 | 256 | 4 | 256 |  | MIC [2]: 128 µg/mL; MIC [4]: 128 µg/mL; MIC [6]: 128 µg/mL; MIC [8]: 128 µg/mL; MIC [9]: 128 µg/mL; MIC [10]: 128 µg/mL; MIC [12]: 128 µg/mL; MIC [15]: 128 µg/mL; MIC [16]: 128 µg/mL; MIC [18]: 128 µg/mL; MIC [22]: 128 µg/mL |
| Cc1onc(-c2ccccc2)c1C(=O)N[C@@H]1C(=O)N2[C@@H]1SC(C)(C)[C@@H]2C(=O)O [OXA, oxacillin] |  |  |  |  |  |  |  |  |  |  |  | 512 |  |  |  |  |  |  |  | Neither OXA, MEM, CPT, or compound 4 by itself showed reduction in bacterial growth | MIC (ATCC 29213, MSSA, bla +): 2 µg/mL; MIC [1]: 512 µg/mL; MIC [2]: 256 µg/mL; MIC of the β-lactam with 4 ([3]; HIP07920 (NRS21), Concentration of 4: 4 mg · L^−1): 0.03 µg/mL; MIC [4]: 256 µg/mL; MIC [6]: 64 µg/mL; MIC [7]: 0.25 µg/mL; MIC [8]: 512 µg/mL; MIC [9]: 64 µg/mL; MIC [10]: 256 µg/mL; MIC [12]: 256 µg/mL; MIC [13]: 64 µg/mL; MIC [15]: 64 µg/mL; MIC [16]: 64 µg/mL; MIC [17]: 512 µg/mL; MIC [18]: 256 µg/mL; MIC [19]: 512 µg/mL; MIC [20]: 0.5 µg/mL; MIC [21]: 256 µg/mL; MIC [22]: 128 µg/mL |
